Assay results from patent publication US20090023666A1, “Modulators of Hypoxia Inducible Factor-1 and Related Uses” (priority 2006, published 2009).

Experiments:
A549 = test: cells; format: cell-based; settings: Homo sapiens, A549, read-out: APA (A549) IC50
Protocol: (§1) FIG. 8 is a graph depicting the mRNA levels of α-1 and α-3 isoforms quantitated by real time RT-PCR (TaqMan) using fluorescent labeled TaqMan probes. Anti-proliferation (IC50 values) activity of BNC4 on indicated cell lines was determined by MTS assay. Total alpha levels (al+a3) were plotted against (1/IC50) X100 values.

Caki-1 (CAKI) = test: cells; format: cell-based; settings: Homo sapiens, CAKI-1, read-out: APA (Caki-1) IC50
Protocol: as §1

Na-K-ATPase [1] = test: Na-K-ATPase enzyme assay (inorganic phosphate liberated from ATP), pig brain; format: biochemical; settings: Pig brain; read-out: ATPase Inh, IC50 Pig brain
Protocol: (§2) Compounds were tested for their activity on Na-K-ATPase enzyme in an in vitro enzyme assay. The ATPase activity was assayed as the amount of inorganic phosphate liberated from ATP by Dog Kidney or Porcine cerebral cortex Na-K-ATPase.

Na-K-ATPase [2] = molecular target: T1, Na-K-ATPase (Canis lupus familiaris, UniProt P50997); test: Na-K-ATPase enzyme assay (inorganic phosphate liberated from ATP), dog kidney; format: biochemical
T1 construct: liberated from ATP by Dog Kidney or Porcine cerebral cortex Na-K-ATPase; from tissue; host or cells: dog kidney
Protocol: as §2

[3] = tested on: 5-aminoimidazole-4-carbox-amide riboside (AICAR); test: AICAR-RA reporter assay; format: cell-based; settings: indicative of the inhibition of glucose metabolism, read-out: AICAR-RA ED50
A549 sentinel line = test: Hypoxic stress response induced by cytotoxic agents in A549 sentinel line; format: cell-based; settings: chemotherapeutic agent alone
Description: FIGS. 7A-7E are graphs depicting the stress response of A549 Sentinel Line induced by treatment with Gemcitabine (FIG. 7A) or Gemcitabine in the presence of indicated compound (FIG. 7B-7D). Untreated (control) sample is shown in shadow. […] Similar results can be achieved for other chemotherapeutic agents which induce hypoxic stress, such as paclitaxel, carboplatin, and mitoxantrone.
Similar results were obtained with carboplatin (not shown).

Panc-1 tumors = test: In vivo activity against Panc-1 human pancreatic xenograft; design: species or system nude mice; settings: Gemcitabine 40 mg/kg q3d × 4
Protocol: Panc-1 tumors were injected subcutaneously (sc) into the flanks of male nude mice. After the tumors reached 60 mg in size, osmotic pumps (model 2002, Alzet Inc., flow rate 0.5 μl/hr) containing 15 mg/ml of BP244 were implanted sc on the opposite sides of the mice. The control animals received pumps containing vehicle (10% captisol, Cyclex Inc.). The mice treated with standard chemotherapy agent received intra-peritoneal injections of Gemcitabine at 40 mg/kg every 3 days for 4 treatments (q3d×4). The experiment was terminated when the control group tumor size reached an average of about 1 gram. Upon termination, the mice were weighed, sacrificed and their tumors excised. The tumors were weighed and the mean tumor weight per group was calculated.
A titration experiment was first performed on BP244 to determine its minimum effective dose against Panc-1 human pancreatic xenograft in nude mice. BP244 (sc, osmotic pumps) was first tested at 15, 10 and 5 mg/ml using Alzet pumps as in previous experiments. Gemcitabine (40 mg/kg; q3d×4, i.p.) was also included in the experiment as a comparison. […]

Panc-1 (PANC) = test: Anti-proliferative activity (APA), Panc-1; format: cell-based; settings: Homo sapiens, PANC-1, read-out: APA (Panc-1) IC50
Protocol: as §1

[4] = in vivo; cited from earlier work

| SMILES | IC50 (A549) | IC50 (Caki-1 (CAKI)) | IC50 (Na-K-ATPase [1]) | EC50 [3] | also measured |
| --- | --- | --- | --- | --- | --- |
| CCNC(=O)O[C@@H]1C=C2CCC3C(CC[C@]4(C)[C@@H](c5ccc(=O)oc5)CC[C@]34O)[C@@]2(C)CC1 (some centres unmarked) | 35 nM | 82 nM | 210 nM | 75 nM | IC50 (Na-K-ATPase [2]): 220 nM |
| C[C@]12CCC(N)C=C1CCC1C2CC[C@]2(C)[C@@H](c3ccc(=O)oc3)CC[C@]12O (some centres unmarked) | 5 nM | 72 nM | 93 nM |  |  |
| CC(C)(C)NC(=O)OC1C=C2CCC3C(CCC4(C)C(c5ccc(=O)oc5)CCC34O)C2(C)CC1 (centres unmarked) | 45 nM | 276 nM | 207 nM | 104 nM |  |
| CCCCNC(=O)OC1C=C2CCC3C(CCC4(C)C(c5ccc(=O)oc5)CCC34O)C2(C)CC1 (centres unmarked) | 24 nM | 46 nM | 206 nM | 68 nM |  |
| COC1O[C@@H]2C(=O)[C@H](C)OC(O[C@@H]3C=C4CCC5C(CC[C@]6(C)[C@@H](c7ccc(=O)oc7)CC[C@]56O)[C@@]4(C)CC3)[C@@H]2O1 (some centres unmarked) |  | 26 nM | 169 nM |  |  |
| Nc1ccn([C@@H]2O[C@H](CO)[C@@H](O)C2(F)F)c(=O)n1 [Gemcitabine, reference compound] |  |  |  |  | hypoxic response visualized by A549 sentinel line (A549 sentinel line): further induce hypoxic response; % TGI (d24) (Panc-1 tumors): 65%; % Wt Change (d24) (Panc-1 tumors): 2.60%; Av. Tumor Weight (Panc-1 tumors): 414.3 mg |
| CN(C)CCN=C1CC[C@@]2(C)C(CCC3C2CC[C@]2(C)[C@@H](c4ccc(=O)oc4)CC[C@]32O)C1 (some centres unmarked) | 25 nM | 109 nM | 171 nM |  |  |
| CC12CCC(OC(=O)c3ccc(C#N)cc3)C=C1CCC1C2CCC2(C)C(c3ccc(=O)oc3)CCC12O (centres unmarked) | 55 nM | 84 nM | 453 nM | 130 nM |  |
| C=CCON=C1C=C2CCC3C(CCC4(C)C(c5ccc(=O)oc5)CCC34O)C2(C)CC1 (centres unmarked) | 9 nM | 40 nM | 116 nM |  |  |
| C[C@]12CC[C@H](OC(=O)C3CCNC3)C=C1CCC1C2CC[C@]2(C)[C@@H](c3ccc(=O)oc3)CC[C@]12O (some centres unmarked) | 48 nM | 112 nM | 480 nM | 210 nM | IC50 (Na-K-ATPase [2]): 299 nM |
| CC12CCC(OC(=O)C3CCNCC3)C=C1CCC1C2CCC2(C)C(c3ccc(=O)oc3)CCC12O (centres unmarked) | 20 nM | 120 nM | 136 nM | 101 nM |  |
| C[C@@H]1CC(O[C@@H]2C=C3CCC4C(CC[C@]5(C)[C@@H](c6ccc(=O)oc6)CC[C@]45O)[C@@]3(C)CC2)[C@H](O)[C@H](O)[C@@H]1O (some centres unmarked) | 9 nM | 24 nM | 129 nM |  |  |
| COC1O[C@@H]2[C@@H](N)[C@H](C)OC(C[C@@H]3C=C4CCC5C(CC[C@]6(C)[C@@H](c7ccc(=O)oc7)CC[C@]56O)[C@@]4(C)CC3)[C@@H]2O1 (some centres unmarked) | 3 nM | 12 nM | 206 nM |  | IC50 (Panc-1 (PANC)): 11 nM |
| CCCNC(=O)OC1C=C2CCC3C(CCC4(C)C(c5ccc(=O)oc5)CCC34O)C2(C)CC1 (centres unmarked) | 19 nM | 67 nM | 198 nM | 102 nM |  |
| C[C@]12CCC(NCCN3CCOCC3)CC1CCC1C2CC[C@]2(C)[C@@H](c3ccc(=O)oc3)CC[C@]12O (some centres unmarked) | 101 nM | 276 nM | 356 nM |  |  |
| CN(C)CCON=C1C=C2CCC3C(CCC4(C)C(c5ccc(=O)oc5)CCC34O)C2(C)CC1 (centres unmarked) | 2 nM | 24 nM | 85 nM |  |  |
| CC12CCC(OC(=O)Nc3ccc(F)cc3)C=C1CCC1C2CCC2(C)C(c3ccc(=O)oc3)CCC12O (centres unmarked) | 23 nM | 142 nM | 277 nM | 100 nM |  |
| C[C@@H]1OC(O[C@@H]2C=C3CCC4C(CC[C@]5(C)[C@@H](c6ccc(=O)oc6)CC[C@]45O)[C@@]3(C)CC2)[C@H](O)[C@H](O)[C@H]1N (some centres unmarked) | 7 nM | 56 nM | 540 nM |  | IC50 (Panc-1 (PANC)): 21 nM |
| CN(C)/N=C1/C=C2CCC3C(CC[C@]4(C)[C@@H](c5ccc(=O)oc5)CC[C@]34O)[C@@]2(C)CC1 (some centres unmarked) | 23 nM | 118 nM | 196 nM | 102 nM |  |
| C[C@@H]1O[C@@H](O[C@H]2C[C@@H](O)[C@]3(CO)[C@H]4[C@H](O)C[C@]5(C)[C@@H](C6=CC(=O)OC6)CC[C@]5(O)[C@@H]4CC[C@]3(O)C2)[C@H](O)[C@H](O)[C@H]1O [BNC1, ouabain] |  |  |  |  | max. plasma concentration [4]: about 0.03 μg/mL |
| CCON=C1C=C2CCC3C(CCC4(C)C(c5ccc(=O)oc5)CCC34O)C2(C)CC1 (centres unmarked) | 14 nM | 19 nM | 93 nM |  |  |
| CC12CCC(=NOCCN3CCCCC3)C=C1CCC1C2CCC2(C)C(c3ccc(=O)oc3)CCC12O (centres unmarked) | 7 nM | 27 nM | 164 nM |  | IC50 (Panc-1 (PANC)): 16 nM |
| CC(=O)N1CCC(C(=O)O[C@@H]2C=C3CCC4C(CC[C@]5(C)[C@@H](c6ccc(=O)oc6)CC[C@]45O)[C@@]3(C)CC2)CC1 (some centres unmarked) | 15 nM | 342 nM | 396 nM | 133 nM | IC50 (Na-K-ATPase [2]): 270 nM |
